Experiments:
[1] = test system: PNH-like erythrocytes; experiment: Alternative pathway inhibition assay of PNH-like erythrocyte; assay type: cell-based; conditions: 1 h, AET/anti-CD55 sensitized human erythrocytes, acidified normal human serum pH 6.4, 37° C. 60 min
Excerpt: Principle: PNH, as an indication for complement inhibitors, was typically tested using the Ham test, which states that acidified serum was capable of activating the alternative pathway, leading to hemolysis of PNH erythrocytes, while normal erythrocytes remained unaffected. It was reported in the literature that AET could disrupt the complement regulatory proteins on the surface of normal human erythrocytes, resulting in PNH-like erythrocytes.
Reagents and instrument: PBS buffer, normal human serum (NHS), Alsever's solution, microplate reader, MgCl2, EGTA, EDTA, HCl, normal human erythrocytes, AET; anti-CD-55 antibody (BRIC216; Sigma)
PBS buffer: Potassium dihydrogen phosphate (KH2PO4): 0.24 g/L, disodium hydrogen phosphate (Na2HPO4): 1.44 g/L, sodium chloride (NaCl): 8 g/L, potassium chloride (KCl): 0.2 g/L, pH 7.4
PBSE buffer: PBS, 10 mM EDTA; pH 7.4
PBSMg buffer: PBS, 1 mM Mg++; pH 6.4
10× Mg-EGTA stock solution: 25 mM MgCl2, 80 mM EGTA; pH 6.4
10× EDTA stock solution: 100 mM EDTA; pH 6.4
Method: The inhibition of alternative pathway-mediated erythrocyte lysis was evaluated using an in vitro model of PNH. Normal human erythrocytes were sensitized with 2-aminoethylisothiouronium bromide (AET) to inactivate complement regulatory proteins on the cell surface and induce a PNH-like phenotype.
2 mL of normal human erythrocytes were mixed with 2 mL of Alsever's solution, washed three times with PBS, and centrifuged at 2500×g, with the upper 10% of the erythrocytes being removed each time. The washed 1 mL erythrocytes were sensitized by incubation with 4 mL of 8% w/v AET (pH 8.0) at 37° C. for 10 min, followed by three additional washes with PBS. Subsequently, the concentration of erythrocytes in PBS (erythrocyte stock solution) was adjusted with PBS such that an absorbance of 1.5-2.0 at 412 nm (indicating hemoglobin release) was achieved upon dilution of 10 μL erythrocyte stock solution with 190 μL water.
1.5 mL of the erythrocyte stock solution was mixed with anti-CD55 antibody (BRIC216; Sigma/final concentration of 6.7 μg/mL) and incubated on ice for 30 min. After being washed once with PBS, the treated erythrocytes were resuspended in PBS-Mg to the initial volume of 1.5 mL. The following AP-mediated lysis assay was performed on this erythrocyte preparation with induced PNH phenotype.
The normal human serum was acidified with 0.2 M HCl to pH 6.4, and supplemented with MgCl2 and EGTA to final concentrations of 2.5 and 8 mM, respectively. 80 μL of this serum mixture was mixed with 10 μL of PBS-Mg (negative blank) or 10 μL of samples at various concentrations. Normal human serum was acidified with 0.2 M HCl to pH 6.4, supplemented with EDTA to a final concentration of 10 mM, and 80 μL of this serum mixture was mixed with 10 μL of PBS-Mg (negative blank) as a blank positive control. The sample was incubated with serum on ice for 5 min, and then 10 μL of sensitized erythrocytes were added. The final serum concentration in the reaction mixture was approximately 64% v/v, incubated at 37° C. for 60 min, and the reaction was quenched by adding 50 μL of ice-cold PBS containing 10 mM EDTA. The remaining unlysed cells were centrifuged at 2500×g for 10 min, and 100 μL of the supernatant was transferred to a 96-well plate to measure its absorbance at 412 nm. The amount of hemoglobin released during erythrocyte lysis was thereby quantified. […] represented the relative lysis of PNH-like erythrocytes (expressed in %; set to 0% for the PC sample and 100% for the NC sample). The absorbance was measured using a microplate reader (Molecular Devices SpectraMax 3X). The IC50 value was calculated by applying nonlinear regression with GraphPad Prism 9.0 software from the percentage of hemolysis as a function of the test compound concentration.

[2] = target: T1, Complement factor B (Homo sapiens, UniProt P00751); experiment: Human complement factor B ELISA assay (CVF-Bb, complement C3 protein); assay type: biochemical; set-up: followed by the addition of 0.2 μL of CVF-Bb (0.1 μmol/mL); conditions: CVF-Bb incubated with compound 1 hour, then complement C3 protein 37° C. 2 hours, OD 450 nm
Description: The mixture was incubated at room temperature for 1 hour;
Then, 9 μL of the successfully incubated samples were taken and added to the wells of the 96T plate, followed by the addition of 1 μL complement C3 protein, and the reaction was carried out at a constant temperature of 37° C. for 2 hours;
The 9 μL of the aforementioned sample-free liquid was mixed with 1 μL of complement C3 protein as the negative control; • 10 μL of the successfully incubated sample was taken, and the inhibitory concentration was determined by ELISA. The OD value at 450 nm was measured, and a curve was plotted. The obtained data were analyzed using GraphPad Prism 7.0 software, and a Log concentration-inhibition rate curve was generated using a nonlinear regression model to calculate the IC50 value.
Target sequence in this assay (P00751 260-764 limits assumed): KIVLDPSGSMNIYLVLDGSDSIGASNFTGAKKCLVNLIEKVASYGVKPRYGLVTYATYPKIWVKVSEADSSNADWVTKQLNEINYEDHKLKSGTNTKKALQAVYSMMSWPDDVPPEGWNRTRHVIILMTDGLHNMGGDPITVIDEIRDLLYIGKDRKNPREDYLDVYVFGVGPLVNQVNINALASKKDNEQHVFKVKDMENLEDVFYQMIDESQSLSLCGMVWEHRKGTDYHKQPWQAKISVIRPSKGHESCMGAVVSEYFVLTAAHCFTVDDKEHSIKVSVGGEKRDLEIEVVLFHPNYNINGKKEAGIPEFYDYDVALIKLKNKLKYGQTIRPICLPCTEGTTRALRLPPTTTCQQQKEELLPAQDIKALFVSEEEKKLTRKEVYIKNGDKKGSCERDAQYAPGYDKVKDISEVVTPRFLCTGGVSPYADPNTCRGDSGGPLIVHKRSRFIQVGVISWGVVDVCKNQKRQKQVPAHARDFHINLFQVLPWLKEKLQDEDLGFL
Target sequence in this assay (Q91132 23-649 partner limits assumed): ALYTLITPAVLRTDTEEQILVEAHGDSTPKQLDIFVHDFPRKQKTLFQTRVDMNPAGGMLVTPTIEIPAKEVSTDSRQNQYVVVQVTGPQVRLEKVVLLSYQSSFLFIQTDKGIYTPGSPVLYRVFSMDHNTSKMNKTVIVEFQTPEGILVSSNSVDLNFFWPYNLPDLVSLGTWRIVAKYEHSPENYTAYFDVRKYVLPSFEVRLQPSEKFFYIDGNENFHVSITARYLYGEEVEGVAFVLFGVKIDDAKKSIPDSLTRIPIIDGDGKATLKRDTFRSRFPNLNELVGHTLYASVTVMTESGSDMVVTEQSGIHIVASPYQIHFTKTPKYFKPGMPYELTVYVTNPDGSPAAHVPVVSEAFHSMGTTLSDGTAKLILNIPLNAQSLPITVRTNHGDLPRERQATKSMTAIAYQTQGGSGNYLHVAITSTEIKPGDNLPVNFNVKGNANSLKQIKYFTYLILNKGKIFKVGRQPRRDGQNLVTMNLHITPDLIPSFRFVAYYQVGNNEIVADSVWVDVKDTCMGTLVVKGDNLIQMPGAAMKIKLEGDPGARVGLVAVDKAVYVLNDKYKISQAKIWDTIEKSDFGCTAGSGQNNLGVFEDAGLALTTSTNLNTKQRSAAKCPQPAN
Target sequence in this assay (Q91132 733-984 partner limits assumed): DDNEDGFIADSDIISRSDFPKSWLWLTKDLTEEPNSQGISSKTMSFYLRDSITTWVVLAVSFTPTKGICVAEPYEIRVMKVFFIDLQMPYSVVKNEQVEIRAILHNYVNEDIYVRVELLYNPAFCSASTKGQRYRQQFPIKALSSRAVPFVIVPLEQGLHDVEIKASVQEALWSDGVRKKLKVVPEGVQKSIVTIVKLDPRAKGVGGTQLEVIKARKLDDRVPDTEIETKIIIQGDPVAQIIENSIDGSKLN
Target sequence in this assay (Q91132 1264-1642 partner limits assumed): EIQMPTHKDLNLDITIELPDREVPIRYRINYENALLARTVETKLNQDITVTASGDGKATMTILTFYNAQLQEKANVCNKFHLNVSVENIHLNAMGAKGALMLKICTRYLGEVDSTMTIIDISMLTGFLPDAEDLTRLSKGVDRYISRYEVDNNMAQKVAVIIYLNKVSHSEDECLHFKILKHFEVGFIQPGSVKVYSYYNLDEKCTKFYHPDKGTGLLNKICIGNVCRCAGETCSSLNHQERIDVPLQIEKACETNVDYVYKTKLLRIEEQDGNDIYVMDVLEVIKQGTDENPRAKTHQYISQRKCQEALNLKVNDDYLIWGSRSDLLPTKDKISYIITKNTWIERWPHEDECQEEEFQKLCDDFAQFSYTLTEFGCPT

[3] = target: T1, Complement factor B; experiment: Optical surface plasmon resonance (SPR) binding affinity assay
Target sequence in this assay (P00751 26-764): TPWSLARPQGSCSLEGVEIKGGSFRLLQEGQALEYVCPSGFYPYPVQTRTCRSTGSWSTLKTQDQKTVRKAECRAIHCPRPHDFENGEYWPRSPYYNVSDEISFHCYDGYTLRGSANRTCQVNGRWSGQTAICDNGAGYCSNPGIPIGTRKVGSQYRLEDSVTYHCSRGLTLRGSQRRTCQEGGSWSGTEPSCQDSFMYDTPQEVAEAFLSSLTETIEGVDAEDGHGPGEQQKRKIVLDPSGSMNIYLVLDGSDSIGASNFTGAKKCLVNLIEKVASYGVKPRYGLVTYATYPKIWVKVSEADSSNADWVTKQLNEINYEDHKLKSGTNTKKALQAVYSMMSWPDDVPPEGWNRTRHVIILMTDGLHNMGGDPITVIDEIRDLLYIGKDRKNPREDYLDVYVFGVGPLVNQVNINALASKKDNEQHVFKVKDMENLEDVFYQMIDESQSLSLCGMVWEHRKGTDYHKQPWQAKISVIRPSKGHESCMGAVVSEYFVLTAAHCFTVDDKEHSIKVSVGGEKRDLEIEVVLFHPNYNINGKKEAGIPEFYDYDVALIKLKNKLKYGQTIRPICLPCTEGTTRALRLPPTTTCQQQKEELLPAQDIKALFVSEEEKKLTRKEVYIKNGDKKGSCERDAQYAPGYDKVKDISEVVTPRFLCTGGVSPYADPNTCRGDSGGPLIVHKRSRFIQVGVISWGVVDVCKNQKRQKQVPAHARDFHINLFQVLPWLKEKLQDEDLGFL
Method: The SPR experiment was conducted at 25° C. using PBS buffer supplemented with 0.05% (v/v) P20 and 5% DMSO as the running buffer. The Biacore 8K instrument from GE Healthcare was employed for analysis. The CM3 chip (GE Healthcare) was activated with 400 mM EDC and 100 mM NHS at a flow rate of 30 μL/min for 420 s.

SMILES	IC50 [1]	IC50 [2]	Kd [3]
CCO[C@H]1CCN(S(=O)(=O)c2c(OC)cc(C)c3[nH]ccc23)[C@H](c2ccc(C(=O)O)cc2)C1 [Compound 51 of Example 144, 4-((2S,4S)-4-Ethoxy-1-((5-methoxy-7-methyl-1H-indol-4-yl)sulfonyl)piperidin-2-yl)benzoic acid]	2000 to 2500 nM	300 to 500 nM	10 to 30 nM
COc1cc(C)c2[nH]ccc2c1C(=O)N1CC[C@H](OC)C[C@H]1c1ccc(C(=O)O)cc1 [Final product of Example 156, 4-((2S,4S)-4-Methoxy-1-(5-methoxy-7-methyl-1H-indole-4-carbonyl)piperidin-2-yl)benzoic acid]	1000 to 1500 nM	150 to 300 nM	10 to 30 nM
COc1cc(C)c2[nH]ccc2c1C(=O)N1CCC(O)(C2CCC2)C[C@H]1c1ccc(C(=O)O)cc1 (mixture of isomers) [Final product of Example 154, 4-((2S)-4-Cyclobutyl-4-hydroxy-1-(5-methoxy-7-methyl-1H-indole-4-carbonyl)piperidin-2-yl)benzoic acid]	4000 to 4500 nM	400 to 450 nM	10 to 30 nM
CCO[C@H]1CCN(C(=O)c2c(OC)cc(C)c3[nH]ccc23)[C@H](c2ccc(C(=O)O)cc2)C1 [Compound 1 of Example 55, 4-((2S,4S)-4-Ethoxy-1-(5-methoxy-7-methyl-1H-indole-4-carbonyl)piperidin-2-yl)benzoic acid]	1000 to 1500 nM	150 to 300 nM	10 to 30 nM
COc1cc(C)c2[nH]ccc2c1C(=O)N1CC[C@H](OC2CCC2)C[C@H]1c1ccc(C(=O)O)cc1 [Final product of Example 157, 4-((2S,4S)-4-Cyclobutoxy-1-(5-methoxy-7-methyl-1H-indole-4-carbonyl)piperidin-2-yl)benzoic acid]	4000 to 4500 nM	400 to 450 nM	10 to 30 nM
COc1cc(C)c2[nH]ccc2c1C(=O)N1CCC(O)(C2CC2)C[C@H]1c1ccc(C(=O)O)cc1 (stereo partly drawn) [Final product of Example 155, 4-((2S)-4-Cyclopropyl-4-hydroxy-1-(5-methoxy-7-methyl-1H-indole-4-carbonyl)piperidin-2-yl)benzoic Acid]	1000 to 1500 nM	150 to 300 nM	10 to 30 nM
COc1cc(C)c2[nH]ccc2c1C(=O)N1CC[C@H](OCC2CC2)C[C@H]1c1ccc(C(=O)O)cc1 [Compound 9 of Example 71, 4-((2S,4S)-4-(Cyclopropylmethoxy)-1-(5-methoxy-7-methyl-1H-indole-4-carbonyl)piperidin-2-yl)benzoic acid]	6000 to 6500 nM		10 to 30 nM
CCO[C@H]1CCN(Cc2c(OC)cc(C)c3[nH]ccc23)[C@H](c2ccc(C(=O)O)cc2)C1 [LNP023, reference compound]	224 nM		

— patent US20260184689A1, “PIPERIDINE-SUBSTITUTED BENZOIC ACID COMPOUND, AND PHARMACEUTICAL COMPOSITION AND USE THEREOF” (SHANGHAI YISHENG BIOPHARMACEUTICAL COMPANY LIMITED, priority 2022, published 2026)
